# Assay results taken from patent US20260347325A1, “DIPHENYLPYRAZOLE COMPOUNDS AND THEIR USE” (INSTITUT NATIONAL DE LA SANTÉ ET DE LA RECHERCHE MÉDICALE, priority 2022, published 2026).
# Experiments:
# αCTF [1] = conditions: 20-fold increase vs untreated; prior art reference compounds, footnotes e, f cite literature; cited from earlier work
# AICD [2] = conditions: 20-fold increase vs untreated; prior art reference compounds, footnotes e, f cite literature; cited from earlier work
# [3] = system: γ-secretase cleavage of Notch; conditions: in words; cited from earlier work
# Aβ = conditions: in words; cited from earlier work
# APP-CTFs and AICD = conditions: in words; cited from earlier work
# SY5Y-APP695WT cells = conditions: 72 h; prior art reference compounds, footnotes e, f cite literature; read-out: Cytotoxicity CC50; cited from earlier work
# Aβ1-42 = Aβ1-42 secretion in SY5Y-APPwt cells (ELISA of conditioned media); assay type: cell-based; conditions: Homo sapiens, 24 h, inhibiting 50% of Aβ1-42 secretion, mean ± SD of at least two experiments in triplicate
# Experimental: (§1) 2. Cell Culture and Treatments
# (§2) The human neuroblastoma cell line SY5Y-APP^695WT was maintained in Dulbecco's modified Eagle medium (DMEM, high glucose, pyruvate—GIBCO, Life Technologies) supplemented with 10% fetal bovine serum, 2 mM L-glutamine, 1 mM non-essential amino acids and penicillin/streptomycin (GIBCO, Life Technologies) at 37°C in a 5% CO2 humidified incubator [36]. For compound treatment, a 10 mM stock solution was diluted in freshly supplemented DMEM medium to obtain the precise final concentration of the drug. Cells were plated at a density of 5.10^5 cells per well into 12-well plates and cultured with 1 mL supplemented DMEM cell medium for 24 h before compound exposure. The following day, the cell medium was replaced with fresh medium containing the compounds diluted at the indicated concentrations. Cells were treated for 24 h. At the end of treatments, the cell medium was collected and kept at −80°C until use, cells were rinsed once with PBS and extracted in 100 μL of Laemmli buffer (10 mM Tris, 20% glycerol, and 2% sodium dodecyl sulfate) using a cell-scraper. The cell lysate was further sonicated (30 pulses of 0.5 s, 60 Hz) for 5 min. Total protein concentration was determined using the Pierce BCA Protein Assay Kit (Thermo Scientific) according to the manufacturer's instructions. Samples were stored at −80°C until analysis.
# (§3) 5. Quantification of Secreted Aβ and sAPP […]
# (§4) Aβ1-40/Aβ1_42 peptides, Aβx-38/Aβx-40/Aβx-42 and sAPPα/sAPPβ concentrations in […] were determined, respectively, using amyloid-beta 40 and 42 Human ELISA kits (Invitrogen), V-PLEX Plus Aβ Peptide Panel 1 (4G8) Kit (Meso Scale Diagnostics, MSD R©) and sAPPα/sAPPβ multiplex kit (Meso Scale Diagnostics, MSD R©) according to the manufacturer's instructions.
# (§5) Compounds of the invention (compounds 16-17, 24-35, 57-58 and 61-72) were evaluated for their ability to modulate APP processing on SYSY human neuroblastoma cell line stably expressing the neuronal isoform of human wild-type APP695 (SY5Y-APP^wt). APP carboxy-terminal fragments (αCTFs and AICD) levels were assessed by western blotting (WB). The effect of reference and test compounds on αCTFs and AICD is expressed as the intensity of corresponding WB bands. The concentration of compounds able to increase 20-times αCTFs and AICD (C20) when compared to the control condition was calculated. Selected compounds were also evaluated for their ability to modulate the secretion of soluble APP fragments (sAPPα and sAPPβ). Aβ1-x levels (Aβ1_40 and Aβ1-42) after treatment with reference and tested compounds were measured in the cell media by ELISA (Table 2). […] Selected hit compounds were then further evaluated for their ability to decrease the level of N-truncated Aβ peptides (Aβx-38, Aβx-40, and Aβx-42). […]
# AICD [4] = test: AICD level in SY5Y-APPwt cells by western blotting; assay type: cell-based; conditions: Homo sapiens, 24 h; concentration to increase AICD by 20-fold vs untreated; mean of at least three experiments, less than 10% deviation; read-out: AICD (C20)
# Experimental: as §2
# (§6) Cell protein lysates were prepared for western-blot analysis by diluting the sample with 1 volume of NuPAGE® lithium dodecyl sulfate (LDS) 2× sample buffer supplemented with 20% NuPAGE® sample reducing agents (Invitrogen). Samples were heated for 10 min at 100°C Ten μg of total proteins per well were loaded onto precast 4-12% Criterion XT Bis-Tris polyacrylamide gels (Bio-Rad) and electrophoresis was achieved after applying a tension of 150 V during 90 min using a Criterion electrophoresis Cell with the NuPAGE® MOPS SDS running buffer (1×). Proteins were transferred to a nitrocellulose membrane of […] pore size (G&E Healthcare) using the Criterion blotting system and applying a tension of 100 V for 45 min. To resolve proteins of low molecular weights such as carboxy-terminal fragments of APP, 12% Criterion XT Bis-Tris polyacrylamide gels (Bio-Rad) were used and electrophoresis was performed during 70 min at 150 V in a NuPAGE® MES SDS running buffer (1×). […] Protein transfer and quality were determined by a reversible Ponceau Red coloration (0.2% xylidine Ponceau Red and 3% trichloroacetic acid). […] Quantifications of protein expression levels were performed with Image Quant TL (G&E Healthcare). […]
# (§7) Compounds of the invention (compounds 16-17, 24-35, 57-58 and 61-72) were evaluated for their ability to modulate APP processing on SYSY human neuroblastoma cell line stably expressing the neuronal isoform of human wild-type APP695 (SY5Y-APP^wt). […]
# αCTF [5] = test: αCTF level in SY5Y-APPwt cells by western blotting; assay type: cell-based; conditions: Homo sapiens, 24 h; concentration to increase αCTF by 20-fold vs untreated; mean of at least three experiments, less than 10% deviation; read-out: αCTF (C20)
# Experimental: as §2, §6, §7
# Cytotoxicity MTS assay = assay type: cell-based; conditions: human, sy5y-app695wt cells; 50% of cell death after 72 h treatment
# Experimental: Cytotoxicity was measured using 3-(4,5-dimethylthiazol-2-yl)-5-(3-carboxymethoxyphenyl)-2-(4-sulfophenyl)-2H-tetrazolium (MTS) tests. SY5Y-APP^695WT cells were plated in a 96-wells plate at 3.10^4 cells per well and allowed to attach for 24 h. Cells were then incubated for 72 h with 100 μL of DMEM medium with 10% SVF containing (or not) the defined concentration of drugs. Cytotoxicity was determined by using the colorimetric MTS assay (Cell Titer 96® Aqueous One Solution Cell Proliferation Assay-MTS Promega) according to the manufacturer's instructions. Absorbance was read at 490 nm.
# Aβ1-40 = Aβ1-40 secretion in SY5Y-APPwt cells (ELISA of conditioned media); assay type: cell-based; conditions: Homo sapiens, 24 h, inhibiting 50% of Aβ1-40 secretion, mean ± SD of at least two experiments in triplicate
# Experimental: as §1, §2, §3, §4, §5
# sAPPβ = sAPPβ secretion (sAPPα/sAPPβ multiplex kit); assay type: cell-based; conditions: Homo sapiens; inhibiting 50% of sAPPβ secretion in SY5Y cells; mean ± SD of at least three experiments in triplicate
# Experimental: (§8) The human neuroblastoma cell line SY5Y-APP^695WT was maintained in Dulbecco's modified Eagle medium (DMEM, high glucose, pyruvate—GIBCO, Life Technologies) supplemented with 10% fetal bovine serum, 2 mM L-glutamine, 1 mM non-essential amino acids and penicillin/streptomycin (GIBCO, Life Technologies) at 37°C in a 5% CO2 humidified incubator [36]. For compound treatment, a 10 mM stock solution was diluted in freshly supplemented DMEM medium to obtain the precise final concentration of the drug. Cells were plated at a density of 5.10^5 cells per well into 12-well plates and cultured with 1 mL supplemented DMEM cell medium for 24 h before compound exposure. […] Total protein concentration was determined using the Pierce BCA Protein Assay Kit (Thermo Scientific) according to the manufacturer's instructions. […]
# (§9) Aβ1-40/Aβ1_42 peptides, Aβx-38/Aβx-40/Aβx-42 and sAPPα/sAPPβ concentrations in […] were determined, respectively, using amyloid-beta 40 and 42 Human ELISA kits (Invitrogen), V-PLEX Plus Aβ Peptide Panel 1 (4G8) Kit (Meso Scale Diagnostics, MSD R©) and sAPPα/sAPPβ multiplex kit (Meso Scale Diagnostics, MSD R©) according to the manufacturer's instructions. […]
# (§10) The activity of compounds of the invention on sAPPα 6 and sAPPβ was further explored. The expression of sAPPβ and sAPPα, which are by-products of β- and α-secretase respectively, were quantified in media of treated cells.
# sAPPα = sAPPα secretion (sAPPα/sAPPβ multiplex kit); assay type: cell-based, human; conditions: for EC (1.5-fold): Homo sapiens, 24 h, concentration to increase sAPPα by 1.5-fold vs untreated, read-out: sAPPα C1.5; for secretion of sAPPα: in words
# Experimental: as §2
# Conditioned media of SYSY-APP^695WT collected at the end of treatments were centrifuged at 1000×g for 5 min to eliminate cell debris.
# as §4
# (§11) Compounds of the invention (compounds 16-17, 24-35, 57-58 and 61-72) were evaluated for their ability to modulate APP processing on SYSY human neuroblastoma cell line stably expressing the neuronal isoform of human wild-type APP695 (SY5Y-APP^wt). APP carboxy-terminal fragments (αCTFs and AICD) levels were assessed by western blotting (WB). The effect of reference and test compounds on αCTFs and AICD is expressed as the intensity of corresponding WB bands. The concentration of compounds able to increase 20-times αCTFs and AICD (C20) when compared to the control condition was calculated. Selected compounds were also evaluated for their ability to modulate the secretion of soluble APP fragments (sAPPα and sAPPβ). Aβ1-x levels (Aβ1_40 and Aβ1-42) after treatment with reference and tested compounds were measured in the cell media by ELISA (Table 2). […] Selected hit compounds were then further evaluated for their ability to decrease the level of N-truncated Aβ peptides (Aβx-38, Aβx-40, and Aβx-42). […] 2015, 6, 559-569; B1: compound 8 of M. Gay et al., Bioorg. Med. Chem. 2018, 26, 2151-2164.
# as §10
# Aβ1-x peptides = test: Aβ1-x (Aβ1-40 and Aβ1-42) secretion; assay type: cell-based, human; conditions: in words
# Experimental: as §8, with “exposure. The following day, the cell medium was replaced with fresh medium containing the compounds diluted at the indicated concentrations. Cells were treated for 24 h.” for “exposure.”
# as §9
# β-secretase = β-secretase cleavage of APP; assay type: cell-based, human; conditions: in words
# Experimental: as §11, §10
IC50 (Aβ1-42) [µM],IC50 (Aβ1-40) [µM],SMILES,EC (20-fold increase) (AICD [4]) [µM],EC (20-fold increase) (αCTF [5]) [µM],CC50 at 72 h (Cytotoxicity MTS assay) [µM],EC (1.5-fold) (sAPPα) [µM],further results
6.1 ± 0.3,4.2 ± 0.1,"CN(C)CCCc1ccc(-c2nn(-c3ccc(CN(C)CCCN(C)C)cc3)cc2CN(C)C)cc1 [Compound 32, N′-[[4-[4-(dimethylaminomethyl)-3-[4-[3-(dimethylamino)propyl]phenyl]-1H-pyrazol-1-yl]phenyl]methyl]-N,N,N′-trimethyl-propane-1,3-diamine]",1.8,1.1,> 100,,
9.7 ± 1.2,9.2 ± 0.4,"CN(C)CCCc1ccc(-c2nn(-c3ccc(CN(C)CCCN(C)C)cc3)cc2CCCN(C)C)cc1 [Compound 33, N′-[[4-[4-[3-(dimethylamino)propyl]-3-[4-[3-(dimethylamino)propyl]phenyl]-1H-pyrazol-1-yl]phenyl]methyl]-N,N,N′-trimethyl-propane-1,3-diamine]",8.9,6.1,> 100,> 10,IC50 (sAPPβ): 6.8 ± 0.3 µM
8.3 ± 0.2,5.7 ± 0.5,"CN(C)CCCc1ccc(-c2nn(-c3cccc(CN(C)CCCN(C)C)c3)cc2CN(C)C)cc1 [Compound 34, N′-[[3-[4-(dimethylaminomethyl)-3-[4-[3-(dimethylamino)propyl]phenyl]-1H-pyrazol-1-yl]phenyl]methyl]-N,N,N′-trimethyl-propane-1,3-diamine]",1.9,1.1,> 100,> 10,IC50 (sAPPβ): 4.5 ± 0.7 µM
13.2 ± 0.2,12.4 ± 0.6,"CN(C)CCCc1ccc(-c2nn(-c3cccc(CN(C)CCCN(C)C)c3)cc2CCCN(C)C)cc1 [Compound 35, N′-[[3-[4-[3-(dimethylamino)propyl]-3-[4-[3-(dimethylamino)propyl]phenyl]-1H-pyrazol-1-yl]phenyl]methyl]-N,N,N′-trimethyl-propane-1,3-diamine]",5.4,5.1,> 100,,

# More lines, now with the values behind:
SMILES,IC50 (Aβ1-42) [µM],IC50 (Aβ1-40) [µM],EC (20-fold increase) (AICD [4]) [µM],EC (20-fold increase) (αCTF [5]) [µM],CC50 at 72 h (Cytotoxicity MTS assay) [µM],EC (1.5-fold) (sAPPα) [µM],further results
"CCN(CC)CCCC(C)Nc1ccnc2cc(Cl)ccc12 (stereo not drawn) [CQ, chloroquine]",,,,,,,αCTF (C20) (αCTF [1]): >>10 μM; AICD (C20) (AICD [2]): >>10 μM; γ-secretase cleavage of Notch [3]: remains unmodified; Aβ production (Aβ): inhibit Aβ production; levels of other APP metabolites such as APP-CTFs and AICD (APP-CTFs and AICD): maintained and even increased; CC50 (SY5Y-APP695WT cells): 30 µM
"Cc1cn(-c2cccc(CN(C)C)c2)nc1-c1ccc(CN(C)CCCN(C)C)cc1 [Compound 67, {[4-(1-{3-[(dimethylamino)methyl]phenyl}-4-methyl-1H-pyrazol-3-yl)phenyl]methyl}-[3-(dimethylamino)propyl]methylamine]",,,,,,1.4,Aβ1-x peptides secretion (Aβ1-x peptides): reduce Aβ1-x peptides secretion; β-secretase cleavage of APP / β-secretase modulatory activity (β-secretase): repressing the β-secretase cleavage of APP; secretion of sAPPα (sAPPα): increasing the secretion of sAPPα
"Cc1cn(-c2cccc(CN(C)CCCN(C)C)c2)nc1-c1ccc(CN(C)CCCN(C)C)cc1 [Compound 69, [3-(dimethylamino)propyl][(4-{1-[3-({[3-(dimethylamino)propyl](methyl)amino}methyl)phenyl]-4-methyl-1H-pyrazol-3-yl}phenyl)methyl]methylamine]",,,,,,> 5,
"Cc1cn(-c2cccc(CN3CCN(C)CC3)c2)nc1-c1cccc(CN(C)CCCN(C)C)c1 [Compound 71, N,N,N′-trimethyl-N′-[[3-[4-methyl-1-[3-[(4-methylpiperazin-1-yl)methyl]phenyl]pyrazol-3-yl]phenyl]methyl]propane-1,3-diamine]",,,,,,1.1,Aβ1-x peptides secretion (Aβ1-x peptides): reduce Aβ1-x peptides secretion; β-secretase cleavage of APP / β-secretase modulatory activity (β-secretase): repressing the β-secretase cleavage of APP; secretion of sAPPα (sAPPα): increasing the secretion of sAPPα
